The values that follow are results of earlier work, collected in US5315013A, “Substituted pyrazole angiotensin II antagonists” (E. I. Du Pont de Nemours and Company, priority 1992, dated 1994).

Data set [1] concerns AII.
In data set [2] the test system is arterial pressure.

Consider `CNCC(=O)N[C@@H](CCCN=C(N)N)C(=O)N[C@H](C(=O)N[C@@H](Cc1ccc(O)cc1)C(=O)N[C@H](C(=O)N[C@@H](Cc1cnc[nH]1)C(=O)N1CCC[C@H]1C(=O)N[C@@H](C)C(=O)O)C(C)C)C(C)C` [Saralasin], for which the “effects of AII on the blood pressure blocked” value in data set [1] (pithed rats) is given as “blocks the effects of AII on the blood pressure of pithed rats”. For the same compound, in data set [1] (potency in words), the “competitive antagonism of the actions of AII” value is “one of the most potent competitive antagonists of the actions of AII”. The “lowering of arterial pressure” value in data set [2] (mammals and man, elevated pressure dependent on circulating AII) was “demonstrated to lower arterial pressure in mammals and man”. Moreover, the “effect of oral doses” value in data set [2] (oral) was “oral doses being ineffective”. Also, in data set [2] (pressure not sustained by AII), the “pressor effects (agonistic character)” value was “generally elicits pressor effects when the pressure is not sustained by AII”.
